# ChEMBL document CHEMBL3991601, “The target landscape of clinical kinase drugs” (Science, 2017)
# The source made the active and inactive calls. Rule as the data show it, for most assays here: actives have a measured Kd and inactives only a lower limit.
# What was measured:
# [1] = molecular target: Calcium/calmodulin-dependent protein kinase type II subunit delta (Homo sapiens, UniProt Q13557)
# [2] = molecular target: T1, Long-chain-fatty-acid--CoA ligase 5 (Homo sapiens, UniProt Q9ULC5)
# T1 sequence (Q9ULC5 whole entry): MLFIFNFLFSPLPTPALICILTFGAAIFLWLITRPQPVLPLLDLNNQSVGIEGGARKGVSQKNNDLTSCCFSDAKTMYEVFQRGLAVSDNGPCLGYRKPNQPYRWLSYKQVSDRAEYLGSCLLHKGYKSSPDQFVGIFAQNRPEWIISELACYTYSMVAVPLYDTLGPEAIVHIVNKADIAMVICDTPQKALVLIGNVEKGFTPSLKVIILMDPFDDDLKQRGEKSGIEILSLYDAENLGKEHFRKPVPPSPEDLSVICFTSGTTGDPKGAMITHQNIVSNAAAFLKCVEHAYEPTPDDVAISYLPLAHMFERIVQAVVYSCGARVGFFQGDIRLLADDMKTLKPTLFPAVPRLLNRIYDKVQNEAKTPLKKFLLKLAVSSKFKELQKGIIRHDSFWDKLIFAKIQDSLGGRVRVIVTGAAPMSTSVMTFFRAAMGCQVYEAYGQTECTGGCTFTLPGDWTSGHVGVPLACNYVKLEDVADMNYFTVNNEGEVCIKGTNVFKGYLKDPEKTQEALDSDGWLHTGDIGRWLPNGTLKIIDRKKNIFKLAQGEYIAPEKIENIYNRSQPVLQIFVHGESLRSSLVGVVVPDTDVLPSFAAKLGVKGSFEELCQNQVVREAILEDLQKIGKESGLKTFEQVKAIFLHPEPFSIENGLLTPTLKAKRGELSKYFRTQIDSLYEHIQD
# [3] = molecular target: T2, Bifunctional phosphoribosylaminoimidazole carboxylase/phosphoribosylaminoimidazole succinocarboxamide synthetase (Homo sapiens, UniProt P22234)
# T2 sequence (P22234 whole entry): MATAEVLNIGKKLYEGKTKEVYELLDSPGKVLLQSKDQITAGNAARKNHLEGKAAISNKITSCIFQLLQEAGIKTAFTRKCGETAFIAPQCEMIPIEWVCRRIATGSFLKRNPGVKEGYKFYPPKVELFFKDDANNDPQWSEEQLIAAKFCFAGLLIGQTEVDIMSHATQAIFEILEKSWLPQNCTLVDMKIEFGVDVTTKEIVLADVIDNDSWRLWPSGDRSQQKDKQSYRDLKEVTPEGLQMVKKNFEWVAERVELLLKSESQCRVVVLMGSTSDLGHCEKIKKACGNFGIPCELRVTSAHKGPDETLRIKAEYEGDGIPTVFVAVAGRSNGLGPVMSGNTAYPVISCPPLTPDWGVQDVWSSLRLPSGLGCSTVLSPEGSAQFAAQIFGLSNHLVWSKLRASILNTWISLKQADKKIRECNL
# Activin receptor type-1B = molecular target: T3, Activin receptor type-1B (Homo sapiens, UniProt P36896)
# T3 sequence (P36896 whole entry): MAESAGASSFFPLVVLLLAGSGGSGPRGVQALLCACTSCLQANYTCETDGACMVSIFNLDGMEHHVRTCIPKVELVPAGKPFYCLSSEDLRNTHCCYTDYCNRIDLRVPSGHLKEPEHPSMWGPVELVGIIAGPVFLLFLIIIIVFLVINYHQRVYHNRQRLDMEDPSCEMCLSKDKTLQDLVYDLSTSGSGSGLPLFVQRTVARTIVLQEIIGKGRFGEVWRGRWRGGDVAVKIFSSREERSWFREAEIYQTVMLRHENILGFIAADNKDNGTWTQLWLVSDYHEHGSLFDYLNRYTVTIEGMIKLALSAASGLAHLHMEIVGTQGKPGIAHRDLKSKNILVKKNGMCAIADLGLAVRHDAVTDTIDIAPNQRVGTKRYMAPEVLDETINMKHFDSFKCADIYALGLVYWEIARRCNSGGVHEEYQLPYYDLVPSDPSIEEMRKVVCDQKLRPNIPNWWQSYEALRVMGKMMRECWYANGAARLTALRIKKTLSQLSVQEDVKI
# [4] = molecular target: Calcium/calmodulin-dependent protein kinase kinase 2 (Homo sapiens, UniProt Q96RR4)
# Ephrin type-A receptor 5 = Ephrin type-A receptor 5 (Homo sapiens, UniProt P54756)
# Myosin-14 = Myosin-14 (Homo sapiens, UniProt Q7Z406)
# [5] = molecular target: Mitogen-activated protein kinase kinase kinase 1 (Homo sapiens, UniProt Q13233)
# [6] = molecular target: Mitogen-activated protein kinase kinase kinase 4 (Homo sapiens, UniProt Q9Y6R4)
# [7] = molecular target: Ribosomal protein S6 kinase alpha-4 (Homo sapiens, UniProt O75676)
# Also: in the data inactive means no Kd found up to 30 µM.
# Chain of Ribosomal protein S6 kinase alpha-4 (O75676 whole entry): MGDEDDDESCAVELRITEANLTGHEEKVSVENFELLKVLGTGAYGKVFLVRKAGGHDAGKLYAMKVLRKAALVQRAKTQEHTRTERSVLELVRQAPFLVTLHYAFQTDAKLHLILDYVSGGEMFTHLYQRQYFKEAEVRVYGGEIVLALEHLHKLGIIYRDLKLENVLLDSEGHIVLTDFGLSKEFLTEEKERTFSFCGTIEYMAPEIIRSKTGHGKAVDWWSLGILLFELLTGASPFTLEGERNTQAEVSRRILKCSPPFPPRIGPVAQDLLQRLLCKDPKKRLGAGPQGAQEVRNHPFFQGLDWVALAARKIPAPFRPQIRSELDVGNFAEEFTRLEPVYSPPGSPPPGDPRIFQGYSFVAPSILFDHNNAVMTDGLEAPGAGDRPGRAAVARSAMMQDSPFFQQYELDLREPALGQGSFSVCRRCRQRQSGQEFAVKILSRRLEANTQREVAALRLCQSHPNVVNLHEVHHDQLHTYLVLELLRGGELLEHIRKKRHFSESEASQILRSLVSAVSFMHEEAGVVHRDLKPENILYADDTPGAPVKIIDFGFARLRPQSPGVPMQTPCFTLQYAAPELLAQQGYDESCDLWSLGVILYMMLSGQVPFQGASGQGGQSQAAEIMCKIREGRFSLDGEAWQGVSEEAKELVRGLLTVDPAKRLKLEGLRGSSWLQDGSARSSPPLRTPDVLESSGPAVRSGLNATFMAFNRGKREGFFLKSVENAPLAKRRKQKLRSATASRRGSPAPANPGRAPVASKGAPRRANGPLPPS
# Chain of Ephrin type-A receptor 5 (P54756 whole entry): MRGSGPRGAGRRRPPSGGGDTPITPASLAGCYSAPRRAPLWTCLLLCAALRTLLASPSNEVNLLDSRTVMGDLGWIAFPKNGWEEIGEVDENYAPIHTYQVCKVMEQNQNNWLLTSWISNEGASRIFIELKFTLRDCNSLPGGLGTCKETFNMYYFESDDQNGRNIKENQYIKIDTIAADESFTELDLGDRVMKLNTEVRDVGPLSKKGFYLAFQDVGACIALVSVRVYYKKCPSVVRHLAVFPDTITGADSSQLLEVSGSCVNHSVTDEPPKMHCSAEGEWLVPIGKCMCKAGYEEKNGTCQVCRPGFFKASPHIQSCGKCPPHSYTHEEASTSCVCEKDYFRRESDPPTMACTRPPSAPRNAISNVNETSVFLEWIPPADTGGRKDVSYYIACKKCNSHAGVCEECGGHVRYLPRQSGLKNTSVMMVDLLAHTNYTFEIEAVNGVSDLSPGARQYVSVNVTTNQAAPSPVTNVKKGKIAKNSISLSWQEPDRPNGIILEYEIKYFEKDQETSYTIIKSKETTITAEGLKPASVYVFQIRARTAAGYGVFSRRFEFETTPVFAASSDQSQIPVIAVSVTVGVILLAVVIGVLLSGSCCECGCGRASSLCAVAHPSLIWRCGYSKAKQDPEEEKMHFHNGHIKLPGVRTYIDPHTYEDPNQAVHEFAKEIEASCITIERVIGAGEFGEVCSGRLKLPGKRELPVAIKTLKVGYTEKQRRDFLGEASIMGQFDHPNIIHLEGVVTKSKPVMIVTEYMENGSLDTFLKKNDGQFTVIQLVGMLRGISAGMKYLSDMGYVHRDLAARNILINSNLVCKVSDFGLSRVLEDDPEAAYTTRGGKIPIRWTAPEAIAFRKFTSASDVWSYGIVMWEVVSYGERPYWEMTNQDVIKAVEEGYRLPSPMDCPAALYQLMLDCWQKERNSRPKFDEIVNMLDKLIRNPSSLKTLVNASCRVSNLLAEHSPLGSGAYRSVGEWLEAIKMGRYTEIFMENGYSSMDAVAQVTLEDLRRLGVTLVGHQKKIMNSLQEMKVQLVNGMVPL
# Chain of Calcium/calmodulin-dependent protein kinase type II subunit delta (Q13557 whole entry): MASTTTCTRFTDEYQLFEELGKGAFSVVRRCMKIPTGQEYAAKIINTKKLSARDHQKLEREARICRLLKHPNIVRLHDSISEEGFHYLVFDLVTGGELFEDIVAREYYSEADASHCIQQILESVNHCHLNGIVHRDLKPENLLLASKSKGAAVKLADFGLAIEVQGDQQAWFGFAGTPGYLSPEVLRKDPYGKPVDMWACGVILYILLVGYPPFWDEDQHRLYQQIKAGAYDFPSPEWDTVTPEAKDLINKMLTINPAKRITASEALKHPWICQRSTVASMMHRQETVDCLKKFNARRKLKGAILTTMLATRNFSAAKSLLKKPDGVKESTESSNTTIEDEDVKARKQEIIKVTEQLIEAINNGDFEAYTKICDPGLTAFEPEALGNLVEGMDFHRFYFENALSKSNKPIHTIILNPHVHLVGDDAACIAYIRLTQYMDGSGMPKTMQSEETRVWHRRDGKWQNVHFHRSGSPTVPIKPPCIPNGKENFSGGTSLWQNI
# Chain of Mitogen-activated protein kinase kinase kinase 1 (Q13233 whole entry): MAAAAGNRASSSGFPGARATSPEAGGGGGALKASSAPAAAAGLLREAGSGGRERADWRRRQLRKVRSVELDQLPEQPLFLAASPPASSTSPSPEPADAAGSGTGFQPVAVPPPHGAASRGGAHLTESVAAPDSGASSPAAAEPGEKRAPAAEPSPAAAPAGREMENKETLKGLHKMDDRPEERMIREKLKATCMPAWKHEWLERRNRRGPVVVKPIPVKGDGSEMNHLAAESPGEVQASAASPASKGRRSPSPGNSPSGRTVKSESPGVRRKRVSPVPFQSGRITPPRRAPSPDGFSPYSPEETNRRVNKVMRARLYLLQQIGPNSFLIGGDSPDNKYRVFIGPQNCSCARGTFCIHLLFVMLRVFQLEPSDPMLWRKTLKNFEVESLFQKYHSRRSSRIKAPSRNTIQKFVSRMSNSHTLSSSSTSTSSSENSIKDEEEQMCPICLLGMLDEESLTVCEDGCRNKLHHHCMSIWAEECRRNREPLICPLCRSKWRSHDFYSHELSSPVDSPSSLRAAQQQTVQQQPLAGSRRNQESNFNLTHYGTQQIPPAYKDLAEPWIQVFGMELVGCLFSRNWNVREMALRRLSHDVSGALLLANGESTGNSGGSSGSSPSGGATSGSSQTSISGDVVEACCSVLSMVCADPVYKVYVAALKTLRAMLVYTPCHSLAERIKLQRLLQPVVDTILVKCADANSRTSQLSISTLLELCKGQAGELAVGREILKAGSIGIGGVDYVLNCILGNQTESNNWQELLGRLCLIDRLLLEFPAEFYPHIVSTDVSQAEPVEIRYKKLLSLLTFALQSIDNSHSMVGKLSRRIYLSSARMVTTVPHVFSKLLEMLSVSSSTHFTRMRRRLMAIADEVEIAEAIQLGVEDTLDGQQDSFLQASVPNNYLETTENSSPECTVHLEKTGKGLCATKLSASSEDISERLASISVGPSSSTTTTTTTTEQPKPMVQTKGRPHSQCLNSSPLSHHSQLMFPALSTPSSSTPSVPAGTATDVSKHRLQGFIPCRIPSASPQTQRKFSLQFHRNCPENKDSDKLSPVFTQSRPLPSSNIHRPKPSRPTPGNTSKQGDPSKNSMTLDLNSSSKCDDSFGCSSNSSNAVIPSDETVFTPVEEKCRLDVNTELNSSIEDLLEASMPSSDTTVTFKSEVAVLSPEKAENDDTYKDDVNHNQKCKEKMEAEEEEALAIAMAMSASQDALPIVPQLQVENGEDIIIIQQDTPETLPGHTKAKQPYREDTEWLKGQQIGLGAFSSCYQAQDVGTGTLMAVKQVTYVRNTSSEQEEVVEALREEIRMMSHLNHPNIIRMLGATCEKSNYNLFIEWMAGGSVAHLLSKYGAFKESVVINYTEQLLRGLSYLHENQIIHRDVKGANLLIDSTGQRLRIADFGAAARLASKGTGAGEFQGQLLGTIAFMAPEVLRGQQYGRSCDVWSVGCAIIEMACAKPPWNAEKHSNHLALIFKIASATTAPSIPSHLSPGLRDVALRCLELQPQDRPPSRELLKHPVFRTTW
# Chain of Calcium/calmodulin-dependent protein kinase kinase 2 (Q96RR4 whole entry): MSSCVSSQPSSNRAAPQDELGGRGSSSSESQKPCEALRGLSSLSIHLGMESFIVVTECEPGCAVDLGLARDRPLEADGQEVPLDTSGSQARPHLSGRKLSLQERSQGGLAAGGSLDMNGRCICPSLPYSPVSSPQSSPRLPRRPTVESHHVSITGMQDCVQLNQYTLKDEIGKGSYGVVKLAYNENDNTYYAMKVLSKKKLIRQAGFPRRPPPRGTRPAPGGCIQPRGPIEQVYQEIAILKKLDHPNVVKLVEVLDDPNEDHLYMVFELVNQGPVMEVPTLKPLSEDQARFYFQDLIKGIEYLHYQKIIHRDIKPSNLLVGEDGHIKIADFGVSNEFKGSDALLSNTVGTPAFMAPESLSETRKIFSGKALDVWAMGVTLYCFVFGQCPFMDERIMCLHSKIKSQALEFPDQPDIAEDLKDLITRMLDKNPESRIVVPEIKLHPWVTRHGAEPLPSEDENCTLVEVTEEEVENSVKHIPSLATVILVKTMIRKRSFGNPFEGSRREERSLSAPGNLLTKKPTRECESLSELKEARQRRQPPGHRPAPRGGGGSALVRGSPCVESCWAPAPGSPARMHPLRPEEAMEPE
Kd [1],Kd [2],Kd [3],Kd (Activin receptor type-1B),Kd [4],Kd (Ephrin type-A receptor 5),Kd (Myosin-14),Kd [5],Kd [6],Kd [7],Compound
> 30 µM (inactive),> 30 µM (inactive),> 30 µM (inactive),> 30 µM (inactive),> 30 µM (inactive),> 30 µM (inactive),> 30 µM (inactive),> 30 µM (inactive),> 30 µM (inactive),> 30 µM (inactive),CNC(=O)c1cccc(-c2ccc3c(N4CCOC[C@@H]4C)nc(N4CCOC[C@@H]4C)nc3n2)c1 [VISTUSERTIB]
> 30 µM (inactive),> 30 µM (inactive),> 30 µM (inactive),> 30 µM (inactive),> 30 µM (inactive),> 30 µM (inactive),> 30 µM (inactive),> 30 µM (inactive),> 30 µM (inactive),> 30 µM (inactive),NC(=O)c1ccc(N(C(N)=O)c2c(F)cccc2F)nc1-c1ccc(F)cc1F [VX-702]
> 30 µM (inactive),> 30 µM (inactive),> 30 µM (inactive),> 30 µM (inactive),> 30 µM (inactive),> 30 µM (inactive),> 30 µM (inactive),> 30 µM (inactive),> 30 µM (inactive),> 30 µM (inactive),COc1cc2ncnc(Nc3ccc(O)cc3)c2cc1OC [WHI-P131]
